System: subjects with insomnia related to major depressive disorder
Experiment: DREAMDD clinical study: Hamilton Depression Rating Scale (HAMD17)
Assay type: in vivo, human
Experimental: The change from baseline to each double-blind, post-treatment visit in the HAM-D-17 score as well as the change from baseline to each double-blind, weekly, post-treatment assessments in the HAM-D-6 (Bech) scores and HAM-D-6 (Maier) scores was presented descriptively (n, mean, median, standard deviation, minimum, 25th percentile, median, 75th percentile, and maximum) by treatment. Treatment comparisons were performed at each assessed time point. The analysis compared the eszopiclone 3 mg group to placebo using an analysis of variance model (ANOVA) with treatment and site as fixed effects. The analysis was performed using the SAS MIXED procedure.
Hamilton Depression Rating Scale (HAM-D17): During this analysis, a medical professional evaluates the patient according to seventeen criteria by selecting the response that best characterizes the patient's behavior during the past week. The criteria and responses are based on that described in Br. J. Soc. Clin. Psychol. 6: 278-296 (1967) and are reproduced below. Question 1: Depressed mood (Sadness, hopeless, helpless, worthless); Response: 0—Absent, 1—These feeling states indicated only on questioning, 2—These feeling states spontaneously reported verbally, 3—Communicates feeling states non-verbally i.e., through facial expression, posture, voice, and tendency to weep, or 4—Patient report virtually only these feeling states in their spontaneous verbal and non-verbal communication. Question 2: Feeling of guilt; Response: 0—Absent, 1—Self reproach, feels they have let people down, 2—Ideas of guilt or rumination over past errors or sinful deeds, 3—Present illness is a punishment and/or has delusions of guilt, or 4—Hears accusatory or denunciatory voices and/or experiences threatening visual hallucinations. Question 3: Suicide; Response: 0—Absent, 1—Feels life is not worth living, 2—Wishes they were dead or any thoughts of possible death to self, 3—Suicide ideas or gesture, 4-Attempts at suicide (any serious attempt rates 4). Question 4: Insomnia early; Response: 0—No difficulty falling asleep; 1—Complains of occasional difficulty falling asleep—i.e., more than ½ hour; or 2—complains of nightly difficulty falling asleep. Question 5: Insomnia middle; Response: 0—No difficulty, 1—patient complains of being restless and disturbed during the night, or 2—Waking during the night—any getting out of bed rates 2 (except for purposes of voiding). Question 6: Insomnia Late; Response: 0—No difficulty, 1—Waking in early hours of the morning but goes back to sleep, or 2—Unable to fall asleep again if they get out of bed. […] Question 8: Retardation (Slowness of thought and speech; impaired ability to concentrate; decreased motor activity); Response: 0—Normal speech and thought, 1—Slight retardation at interview, 2—Obvious retardation at interview, 3—Interview difficult, or 4—Complete stupor. Question 9: Agitation; Response: 0—None; 1—Fidgetiness; 2—Playing with hands, hair, etc.; 3—Moving about, can't sit still; or 4—Hand wringing, nail biting, hair-pulling, biting of lips. Question 10: Anxiety psychic: 0—No difficulty, 1—Subjective tension and irritability, 2—Worrying about minor matters, 3—Apprehensive attitude apparent in face or speech, or 4—Fears expressed without questioning. Question 11: Anxiety somatic (Physiological concomitants of anxiety, such as:—Gastro-intestinal: dry mouth, wind, indigestion, diarrhea, cramps, belching.—Cardio-vascular: palpitations, headaches.—Respiratory: hyperventilation, sighing.—Urinary frequency—Sweating); Response: 0—Absent, 1—Mild, 2—Moderate, 3—Severe, or 4—Incapacitating. Question 12: Somatic symptoms gastro-intestinal; Response: 0—None, 1—Loss of appetite but eating without staff encouragement and/or heavy feelings in abdomen; or 2—Difficulty eating without staff urging and/or requests or requires laxatives or medication for bowels or medication for gastro-intestinal symptoms. […]

CN1CCN(C(=O)OC2c3nccnc3C(=O)N2c2ccc(Cl)cn2)CC1 (single isomer, unassigned; (+)) [Eszopiclone, (+) 6-(5-chloro-2-pyridinyl)-6,7-dihydro-7-oxo-5H-pyrrolo[3,4b]pyrazin-5-yl 4-methylpiperazine-1-carboxylate]
HAMD 17 differences in patients with more severe depression (baseline HAMD 17≧22) (3 mg nightly + fluoxetine vs placebo): greater | changes in HAMD17 scores (Week 4, p=0.02 vs placebo, 3 mg nightly + fluoxetine 20 mg QAM): −9.9 | changes in HAMD17 scores (Week 8, p<0.001 vs placebo, 3 mg nightly + fluoxetine): −13.8 | responders (50% decrease from baseline HAMD17) (Week 8, p<0.009 vs placebo, 3 mg nightly + fluoxetine): 74% | remitters (HAMD17≦7) (Week 8, p<0.02 vs placebo, 3 mg nightly + fluoxetine): 54% | HAMD17 with removal of insomnia items, versus placebo (Week 8, p<0.03, 3 mg nightly + fluoxetine): significant differences | augmentation effect versus agents currently used for augmentation therapy, such as lithium (co-administration with fluoxetine): larger | augmentation effect by severity of depression (end of the 8 week treatment period): most pronounced in the most severely depressed patients
